Reference: ChEMBL document CHEMBL1201862, “PubChem BioAssay data set” (2004)
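Step 1: Grow cells in 96-well plates. Step 2: Expose to compound for 48 hours at 5 concentrations. Step 3: Interpolate endpoints linearly; if unreached, use highest concentration. At the GI50, growth is halved.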 Active and inactive are the calls of the source. Rule as the data show it: active = GI50 up to about 1.1 µM and inactive = higher.

How the values were obtained:
Experiment in all cases: growth of human tumour cells (NCI), 48 h
SNB-19 = system: SNB-19
HCC 2998 = system: HCC 2998
MOLT-4 = system: MOLT-4
A549 = system: A549
ACHN = system: ACHN
OVCAR-5 = system: OVCAR-5
NCI-H522 = system: NCI-H522
SK-OV-3 = system: SK-OV-3
SK-MEL-28 = system: SK-MEL-28
SNB-78 = system: SNB-78
LOX IMVI = system: LOX IMVI
SR = system: SR
EKVX = system: EKVX
M14 = system: M14
RPMI-8226 = system: RPMI-8226
COLO 205 = system: COLO 205
HCT-116 = system: HCT-116
HOP-92 = system: HOP-92

Measured: GI50

O=C1CCCc2c(O)ccc(O)c21
inactive: SNB-19 > 100 µM | HCC 2998 > 100 µM | MOLT-4 27.9 µM | A549 > 100 µM | ACHN > 100 µM | OVCAR-5 > 100 µM | NCI-H522 12.6 µM | SK-OV-3 > 100 µM | SK-MEL-28 > 100 µM | SNB-78 > 100 µM | LOX IMVI > 100 µM | SR 28.3 µM | EKVX 85.7 µM | M14 > 100 µM | RPMI-8226 40.6 µM | COLO 205 > 100 µM | HCT-116 > 100 µM

COc1cccc(C=O)c1[O-].COc1cccc(C=O)c1[O-].[Zn+2]
inactive: SNB-19 > 100 µM | HCC 2998 > 100 µM | MOLT-4 33.8 µM | A549 > 100 µM | ACHN 44.1 µM | OVCAR-5 53.7 µM | NCI-H522 > 100 µM | SK-OV-3 36.6 µM | SK-MEL-28 76.7 µM | SNB-78 > 100 µM | LOX IMVI 76.9 µM | SR 35.6 µM | EKVX 61.5 µM | M14 36.3 µM | HOP-92 21.9 µM | RPMI-8226 49.1 µM | COLO 205 > 100 µM | HCT-116 44.3 µM

CCOC1C(Br)Cn2c(=O)c3cc4ccccc4cc3c(=O)n2C1C (centres undefined)
inactive: SNB-19 > 100 µM | HCC 2998 50.6 µM | MOLT-4 29.4 µM | A549 67.3 µM | ACHN > 100 µM | OVCAR-5 > 100 µM | NCI-H522 1.67 µM | SK-OV-3 > 100 µM | SK-MEL-28 > 100 µM | SNB-78 > 100 µM | LOX IMVI 73.5 µM | SR 34 µM | EKVX 47.6 µM | M14 42.5 µM | HOP-92 97.7 µM | RPMI-8226 33.8 µM | COLO 205 56.6 µM | HCT-116 58.9 µM

COc1ccccc1C1c2cc3c(cc2OC(O)(CO)C1C(=O)O)OCO3.COc1ccccc1C1c2cc3c(cc2OC2(O)COC(=O)C12)OCO3 (centres undefined)
inactive: HCC 2998 > 100 µM | MOLT-4 70 µM | A549 > 100 µM | ACHN > 100 µM | OVCAR-5 > 100 µM | SK-OV-3 > 100 µM | SK-MEL-28 > 100 µM | SNB-78 > 100 µM | LOX IMVI > 100 µM | SR > 100 µM | EKVX > 100 µM | M14 > 100 µM | HOP-92 > 100 µM | RPMI-8226 > 100 µM | COLO 205 > 100 µM | HCT-116 > 100 µM

O=C1NC(O)n2c(=O)[nH]c(=O)n21 (centres undefined)
inactive: SNB-19 > 100 µM | HCC 2998 > 100 µM | MOLT-4 > 100 µM | A549 > 100 µM | ACHN > 100 µM | OVCAR-5 > 100 µM | NCI-H522 > 100 µM | SK-OV-3 > 100 µM | SK-MEL-28 > 100 µM | SNB-78 > 100 µM | LOX IMVI > 100 µM | SR > 100 µM | EKVX > 100 µM | M14 > 100 µM | HOP-92 > 100 µM | RPMI-8226 > 100 µM | COLO 205 > 100 µM | HCT-116 > 100 µM

CC(N)Cc1ccc(Cl)c(Cl)c1 (centres undefined)
inactive: SNB-19 > 96.6 µM | HCC 2998 17.3 µM | MOLT-4 29.2 µM | A549 > 100 µM | ACHN 26.8 µM | OVCAR-5 30.1 µM | NCI-H522 29.6 µM | SK-OV-3 74.8 µM | SK-MEL-28 20.4 µM | SNB-78 28.4 µM | LOX IMVI 27.2 µM | SR 20.5 µM | EKVX 41.5 µM | M14 18.4 µM | HOP-92 22.6 µM | RPMI-8226 34.8 µM | COLO 205 20.3 µM | HCT-116 35.1 µM

CC(=O)N(N=O)c1ccc(N(N=O)C(C)=O)cc1
inactive: SNB-19 > 100 µM | HCC 2998 > 100 µM | MOLT-4 > 100 µM | A549 > 100 µM | ACHN > 100 µM | OVCAR-5 > 100 µM | NCI-H522 > 100 µM | SK-OV-3 > 100 µM | SK-MEL-28 > 100 µM | SNB-78 > 100 µM | LOX IMVI > 100 µM | SR > 100 µM | M14 > 100 µM | HOP-92 > 100 µM | RPMI-8226 > 100 µM | COLO 205 > 100 µM | HCT-116 > 100 µM

C=CN1C(=O)OC[C@@H]1c1ccccc1
inactive: SNB-19 > 100 µM | HCC 2998 > 100 µM | MOLT-4 > 100 µM | A549 > 100 µM | ACHN > 100 µM | OVCAR-5 > 100 µM | NCI-H522 > 100 µM | SK-OV-3 > 100 µM | SK-MEL-28 > 100 µM | SNB-78 > 100 µM | LOX IMVI 67 µM | EKVX > 100 µM | M14 > 100 µM | HOP-92 > 100 µM | RPMI-8226 34.3 µM | COLO 205 > 100 µM | HCT-116 83.2 µM
